Patent publication US20080039444A1, “COMPOUNDS” (GLAXO GROUP LIMITED, priority 2006, published 2008)

Key:
[1] = biological target: T1, human H1 receptor (Homo sapiens, UniProt P35367); assay: Histamine H1 functional antagonist assay: antagonist duration after washout; assay type: cell-based; conditions: at one or more time points
T1 construct: expressed in transfected cells
Description: (§1) The human H1 receptor is cloned using known procedures described in the literature [Biochem. Biophys. Res. Commun., 201(2):894 (1994)]. Chinese hamster ovary (CHO) cells stably expressing the human H1 receptor are generated according to known procedures described in the literature [Br. J. Pharmacol., 117(6):1071 (1996)].
(§2) Histamine H1 functional antagonist assay: Determination of antagonist pA2 and duration
To determine the antagonist duration, cells are cultured overnight in non-coated black-walled clear bottom 96-well tissue culture plates, are washed with PBS and are incubated with a concentration of antagonist chosen to give an approximate DR in the range 30-300. Following the 30 min antagonist incubation period, the cells are washed two or three times with 200 μl of PBS and then 100 μl Tyrodes buffer is added to each well to initiate antagonist dissociation. Following incubation for predetermined times, typically 30-270 min at 37° C., the cells are then washed again with 200 μl PBS and are incubated with 100 μl Tyrodes buffer containing Brilliant Black, probenecid and Fluo-4 for 45 min at 37° C., as described above. After this period, the cells are challenged with histamine in the FLIPR™ as described above. The dose ratio at each time point is used to determine the fractional H1 receptor occupancy by the following equation: fractional receptor occupancy=(DR-1)/DR. The decrease in receptor occupancy over time approximates to a straight line and is analysed by linear regression. The slope of this straight line fit is used as an index of the dissociation rate of the antagonist. The dose ratios for antagonist treated cells and for antagonist treated and washed cells at each time point are used to calculate a relative dose ratio (rel DR) which is also used as an index of antagonist duration. Antagonists with long duration of action produce rel DR values close to 1, and antagonists with short duration of action produce rel DR values that approaches the dose ratio value obtained for antagonist treatment alone.

[2] = CNS penetration (intravenous bolus or infusion at steady state, blood and brain levels); assay type: in vivo, rat; conditions: male CD Sprague Dawley rats
Description: (i) CNS penetration by bolus administration
Compounds are dosed intravenously at a nominal dose level of 1 mg/kg to male CD Sprague Dawley rats. Compounds are formulated in 5% DMSO/45% PEG200/50% water. Blood samples are taken under terminal anaesthesia with isoflurane at 5 min post-dose and the brains are also removed for assessment of brain penetration. Blood samples are taken directly into heparinised tubes. Blood samples are prepared for analysis using protein precipitation and brain samples are prepared using extraction of drug from brain by homogenisation and subsequent protein precipitation. The concentration of parent drug in blood and brain extracts is determined by quantitative LC-MS/MS analysis using compound-specific mass transitions.
(ii) CNS penetration following intravenous infusion at steady state
A loading dose of the compounds is given to male CD Sprague Dawley rats at a nominal dose level of 0.4 mg/kg. The compounds are then infused intravenously for 4 h at a nominal dose level of 0.1 mg/kg/h. Compounds are formulated in 2% DMSO/30% PEG200/68% water. Serial or terminal blood samples are taken at 0.5, 1.5, 2.5, 3, 3.5 and 4 h post dose. The final blood sample is collected under terminal anaesthesia with isoflurane and the brains are also removed for assessment of brain penetration. Blood samples are taken directly into heparinised tubes. Blood samples are prepared for analysis using protein precipitation and brain samples are prepared using extraction of drug from brain by homogenisation and subsequent protein precipitation. The concentration of parent drug in blood and brain extracts is determined by quantitative LC-MS/MS analysis using compound-specific mass transitions.

[3] = biological target: T1, human H1 receptor; assay: Histamine H1 functional antagonist assay (FLIPR): determination of antagonist pA2; assay type: cell-based
Description: as §1, §2
The histamine H1 receptor expressing CHO cells are seeded into non-coated black-walled clear bottom 96-well tissue culture plates as described above. Following overnight culture, growth medium is removed from each well, washed with 200 μl phosphate buffered saline (PBS) and is replaced with 50 μl loading dye (250 μM Brilliant Black, 1 μM Fluo-4 diluted in Tyrodes buffer+probenecid (145 mM NaCl, 2.5 mM KCl, 10 mM HEPES, 10 mM D-glucose, 1.2 mM MgCl2, 1.5 mM CaCl2, 2.5 mM probenecid, pH adjusted to 7.40 with NaOH 1.0 M)). Cells are incubated for 45 min at 37° C. The loading buffer is removed and the cells are washed as above, and 90 μl of Tyrodes buffer+probenecid is added to each well. 10 μl of test compound, diluted to the required concentration in Tyrodes buffer+probenecid (or 10 μl Tyrodes buffer+probenecid as a control) is added to each well and the plate is incubated for 30 min at 37° C., 5% CO2. The plates are then placed into a FLIPR™ (Molecular Devices, UK) to monitor cell fluorescence (λex=488 nm, λEM=540 nm) in the manner described in Sullivan et al., (In: Lambert DG (ed.), Calcium Signaling Protocols, New Jersey: Humana Press, 1999, 125-136) before and after the addition of 50 μl histamine over a concentration range of 1 mM-0.1 nM. The resultant concentration response curves are analysed by non-linear regression using a standard four parameter logistic equation to determine the histamine EC50, the concentration of histamine required to produce a response of 50% of the maximum response to histamine. The antagonist pA2 is calculated using the following standard equation: pA2=log(DR-1)- log[B] where DR=dose ratio, defined as EC50antagonist-treated/EC50control and [B]=concentration of antagonist.

T1 sequence (P35367 whole entry): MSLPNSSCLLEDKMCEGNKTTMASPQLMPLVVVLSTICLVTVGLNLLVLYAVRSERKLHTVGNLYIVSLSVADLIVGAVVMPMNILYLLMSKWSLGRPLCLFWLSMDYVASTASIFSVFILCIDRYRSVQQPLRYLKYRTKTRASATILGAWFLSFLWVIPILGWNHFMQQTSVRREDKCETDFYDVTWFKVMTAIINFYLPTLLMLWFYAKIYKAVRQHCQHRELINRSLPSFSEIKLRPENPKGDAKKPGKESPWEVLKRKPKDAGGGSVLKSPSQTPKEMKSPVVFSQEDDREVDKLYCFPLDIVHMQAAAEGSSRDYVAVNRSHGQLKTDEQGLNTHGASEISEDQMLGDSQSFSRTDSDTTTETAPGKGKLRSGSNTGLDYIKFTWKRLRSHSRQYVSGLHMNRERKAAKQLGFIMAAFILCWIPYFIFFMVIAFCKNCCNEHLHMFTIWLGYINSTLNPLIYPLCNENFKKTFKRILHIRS

In the case of `O=c1c2ccccc2c(Cc2ccc(Cl)cc2)nn1C[C@H]1CCCN1CCCCc1ccc(OCCCN2CCCCCC2)cc1` [Example 24, 4-[(4-Chlorophenyl)methyl]-2-({(2R)-1-[4-(4-{[3-(hexahydro-1H-azepin-1-yl)propyl]oxy}phenyl)butyl]-2-pyrrolidinyl}methyl)-1(2H)-phthalazinone free base], the “duration of action compared with azelastine in the histamine H1 functional antagonist assay” value [1] is reported as “significantly longer duration of action than azelastine”, the “CNS penetration compared with azelastine” value [2] is reported as “lower CNS penetration than azelastine” and the Kb [3] is reported as ~1.26 nM.
